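A five-concentration, 48-hour dose response in 96-well plates underlies each endpoint, interpolated linearly between surrounding concentrations. GI50 marks 50% less growth. Definition used: TGI = concentration required for complete inhibition of growth.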
Key:
Experiment in all cases: NCI anticancer screen, dose series, 48 h
SK-MEL-5 melanoma = system: SK-MEL-5 melanoma
HCC-2998 colon = system: HCC-2998 colon
SK-MEL-28 melanoma = system: SK-MEL-28 melanoma
TK-10 renal = system: TK-10 renal
EKVX NSCLC = system: EKVX NSCLC
MDA-MB-435 = system: MDA-MB-435
HT29 colon = system: HT29 colon
HCT-116 colon = system: HCT-116 colon
OVCAR-8 ovarian = system: OVCAR-8 ovarian
SN12C renal = system: SN12C renal
SK-OV-3 ovarian = system: SK-OV-3 ovarian
NCI-H460 lung = system: NCI-H460 lung
UACC-257 melanoma = system: UACC-257 melanoma
A549 NSCLC = system: A549 NSCLC
HCT-15 colon = system: HCT-15 colon
SW-620 colon = system: SW-620 colon
M14 melanoma = system: M14 melanoma
UO-31 renal = system: UO-31 renal
LOX IMVI melanoma = system: LOX IMVI melanoma
SF-268 CNS = system: SF-268 CNS
SNB-75 CNS = system: SNB-75 CNS
BT-549 breast = system: BT-549 breast
RXF 393 renal = system: RXF 393 renal
SR leukemia = system: SR leukemia
HS 578T breast = system: HS 578T breast
IGROV1 ovarian = system: IGROV1 ovarian
CAKI-1 renal = system: CAKI-1 renal
KM12 colon = system: KM12 colon
UACC-62 melanoma = system: UACC-62 melanoma
NCI/ADR-RES ovarian = system: NCI/ADR-RES ovarian
PC-3 prostate = system: PC-3 prostate
DU-145 prostate = system: DU-145 prostate
SF-539 CNS = system: SF-539 CNS
ACHN renal = system: ACHN renal
CCRF-CEM leukemia = system: CCRF-CEM leukemia
HOP-62 NSCLC = system: HOP-62 NSCLC
OVCAR-4 ovarian = system: OVCAR-4 ovarian
NCI-H23 lung = system: NCI-H23 lung
NCI-H226 lung = system: NCI-H226 lung
T-47D breast = system: T-47D breast
MOLT-4 leukemia = system: MOLT-4 leukemia
MALME-3M melanoma = system: MALME-3M melanoma
RPMI-8226 leukemia = system: RPMI-8226 leukemia
MCF7 breast = system: MCF7 breast
HOP-92 NSCLC = system: HOP-92 NSCLC
MDA-MB-231 breast = system: MDA-MB-231 breast
SNB-19 CNS = system: SNB-19 CNS
NCI-H522 lung = system: NCI-H522 lung
A498 renal = system: A498 renal
786-0 renal = system: 786-0 renal
K-562 leukemia = system: K-562 leukemia
SK-MEL-2 melanoma = system: SK-MEL-2 melanoma
COLO 205 colon = system: COLO 205 colon
OVCAR-5 ovarian = system: OVCAR-5 ovarian
U251 CNS = system: U251 CNS
SF-295 CNS = system: SF-295 CNS
OVCAR-3 ovarian = system: OVCAR-3 ovarian
HL-60(TB) leukemia = system: HL-60(TB) leukemia
MDA-N = system: MDA-N

SMILES: N#CN1CC[C@H](C(=O)Nc2cc3cc(C(N)=O)ccc3cn2)C1
- GI50 (SK-MEL-5 melanoma): 105 nM
- TGI (SK-MEL-5 melanoma): 2210 nM
- GI50 (HCC-2998 colon): 144 nM
- TGI (HCC-2998 colon): 10.8 µM
- GI50 (SK-MEL-28 melanoma): 117 nM
- TGI (SK-MEL-28 melanoma): 9.41 µM
- GI50 (TK-10 renal): 232 nM
- TGI (TK-10 renal): 2440 nM
- GI50 (EKVX NSCLC): 258 nM
- TGI (EKVX NSCLC): 6.87 µM
- GI50 (MDA-MB-435): 45 nM
- TGI (MDA-MB-435): 13.2 µM
- GI50 (HT29 colon): 144 nM
- TGI (HT29 colon): 1160 nM
- GI50 (HCT-116 colon): 104 nM
- TGI (HCT-116 colon): 15.3 µM
- GI50 (OVCAR-8 ovarian): 99.3 nM
- TGI (OVCAR-8 ovarian): > 46.3 µM
- GI50 (SN12C renal): 117 nM
- TGI (SN12C renal): 46.7 µM
- GI50 (SK-OV-3 ovarian): 370 nM
- TGI (SK-OV-3 ovarian): > 100 µM
- GI50 (NCI-H460 lung): 188 nM
- TGI (NCI-H460 lung): > 44 µM
- GI50 (UACC-257 melanoma): 220 nM
- TGI (UACC-257 melanoma): 904 nM
- GI50 (A549 NSCLC): 527 nM
- TGI (A549 NSCLC): > 100 µM
- GI50 (HCT-15 colon): 302 nM
- TGI (HCT-15 colon): > 100 µM
- GI50 (SW-620 colon): 96.9 nM
- TGI (SW-620 colon): > 84.9 µM
- GI50 (M14 melanoma): 69.4 nM
- TGI (M14 melanoma): 1130 nM
- GI50 (UO-31 renal): 107 nM
- TGI (UO-31 renal): 518 nM
- GI50 (LOX IMVI melanoma): 117 nM
- TGI (LOX IMVI melanoma): > 54.9 µM
- GI50 (SF-268 CNS): 73.2 nM
- TGI (SF-268 CNS): 24.3 µM
- GI50 (SNB-75 CNS): 64.9 nM
- TGI (SNB-75 CNS): 512 nM
- GI50 (BT-549 breast): 35.7 nM
- TGI (BT-549 breast): 230 nM
- GI50 (RXF 393 renal): 42.6 nM
- TGI (RXF 393 renal): 210 nM
- GI50 (SR leukemia): 34.7 nM
- GI50 (HS 578T breast): 53.4 nM
- TGI (HS 578T breast): 3.52 µM
- GI50 (IGROV1 ovarian): 387 nM
- TGI (IGROV1 ovarian): > 25.3 µM
- GI50 (CAKI-1 renal): 487 nM
- TGI (CAKI-1 renal): > 100 µM
- GI50 (KM12 colon): 56.6 nM
- TGI (KM12 colon): 12 µM
- GI50 (UACC-62 melanoma): 58.7 nM
- TGI (UACC-62 melanoma): 399 nM
- GI50 (NCI/ADR-RES ovarian): 192 nM
- TGI (NCI/ADR-RES ovarian): > 100 µM
- GI50 (PC-3 prostate): 257 nM
- TGI (PC-3 prostate): 20.4 µM
- GI50 (DU-145 prostate): 357 nM
- TGI (DU-145 prostate): > 65.4 µM
- GI50 (SF-539 CNS): 58.9 nM
- TGI (SF-539 CNS): 319 nM
- GI50 (ACHN renal): 333 nM
- GI50 (CCRF-CEM leukemia): 29 nM
- TGI (CCRF-CEM leukemia): > 100 µM
- GI50 (HOP-62 NSCLC): 172 nM
- TGI (HOP-62 NSCLC): 3.5 µM
- GI50 (OVCAR-4 ovarian): 41 nM
- TGI (OVCAR-4 ovarian): 1600 nM
- GI50 (NCI-H23 lung): 130 nM
- TGI (NCI-H23 lung): 2050 nM
- GI50 (NCI-H226 lung): 238 nM
- TGI (NCI-H226 lung): 5.08 µM
- GI50 (T-47D breast): 16 nM
- TGI (T-47D breast): 0.0651 µM
- GI50 (MOLT-4 leukemia): 48.8 nM
- GI50 (MALME-3M melanoma): 23.9 nM
- TGI (MALME-3M melanoma): 152 nM
- GI50 (RPMI-8226 leukemia): 272 nM
- TGI (RPMI-8226 leukemia): 1460 nM
- GI50 (MCF7 breast): 21.4 nM
- TGI (MCF7 breast): > 100 µM
- GI50 (HOP-92 NSCLC): 69.2 nM
- TGI (HOP-92 NSCLC): 542 nM
- GI50 (MDA-MB-231 breast): 99.5 nM
- TGI (MDA-MB-231 breast): > 24.5 µM
- GI50 (SNB-19 CNS): 144 nM
- TGI (SNB-19 CNS): > 100 µM
- GI50 (NCI-H522 lung): 69.5 nM
- TGI (NCI-H522 lung): 247 nM
- GI50 (A498 renal): 76.5 nM
- TGI (A498 renal): 310 nM
- GI50 (786-0 renal): 222 nM
- GI50 (K-562 leukemia): 131 nM
- TGI (K-562 leukemia): > 54.2 µM
- GI50 (SK-MEL-2 melanoma): 26.6 nM
- TGI (SK-MEL-2 melanoma): 107 nM
- GI50 (COLO 205 colon): 85.5 nM
- TGI (COLO 205 colon): 268 nM
- GI50 (OVCAR-5 ovarian): 510 nM
- TGI (OVCAR-5 ovarian): > 68.4 µM
- GI50 (U251 CNS): 81.5 nM
- TGI (U251 CNS): 38.4 µM
- GI50 (SF-295 CNS): 392 nM
- TGI (SF-295 CNS): > 47.7 µM
- GI50 (OVCAR-3 ovarian): < 18.6 nM
- TGI (OVCAR-3 ovarian): 206 nM
- GI50 (HL-60(TB) leukemia): 109 nM
- TGI (HL-60(TB) leukemia): 443 nM

SMILES: O=C(Nc1cccc2ccccc12)c1ccccc1
- TGI (SK-MEL-5 melanoma): > 100000 nM
- TGI (HCC-2998 colon): > 100 µM
- TGI (SK-MEL-28 melanoma): > 100 µM
- TGI (TK-10 renal): > 100000 nM
- TGI (EKVX NSCLC): > 100 µM
- TGI (MDA-MB-435): > 100 µM
- TGI (HT29 colon): > 100000 nM
- TGI (HCT-116 colon): > 100 µM
- TGI (OVCAR-8 ovarian): > 100 µM
- TGI (SN12C renal): > 100 µM
- TGI (SK-OV-3 ovarian): > 100 µM
- TGI (NCI-H460 lung): > 100 µM
- TGI (UACC-257 melanoma): > 100000 nM
- TGI (A549 NSCLC): > 100 µM
- TGI (HCT-15 colon): > 100 µM
- TGI (SW-620 colon): > 100 µM
- TGI (M14 melanoma): > 100000 nM
- TGI (UO-31 renal): > 100000 nM
- TGI (LOX IMVI melanoma): > 100 µM
- TGI (SF-268 CNS): > 100 µM
- TGI (SNB-75 CNS): > 100000 nM
- TGI (BT-549 breast): > 100000 nM
- TGI (RXF 393 renal): > 100000 nM
- TGI (HS 578T breast): > 100 µM
- TGI (IGROV1 ovarian): > 100 µM
- TGI (CAKI-1 renal): > 100 µM
- TGI (KM12 colon): > 100 µM
- TGI (MDA-N): > 100 µM
- TGI (UACC-62 melanoma): > 100000 nM
- TGI (NCI/ADR-RES ovarian): > 100 µM
- TGI (PC-3 prostate): > 100 µM
- TGI (DU-145 prostate): > 100 µM
- TGI (SF-539 CNS): > 100000 nM
- TGI (ACHN renal): > 100 µM
- TGI (CCRF-CEM leukemia): > 100 µM
- TGI (HOP-62 NSCLC): > 100 µM
- TGI (OVCAR-4 ovarian): > 100000 nM
- TGI (NCI-H23 lung): > 100000 nM
- TGI (NCI-H226 lung): > 100 µM
- TGI (T-47D breast): 81.6 µM
- TGI (MALME-3M melanoma): > 100000 nM
- TGI (MCF7 breast): > 100 µM
- TGI (MDA-MB-231 breast): > 100 µM
- TGI (SNB-19 CNS): > 100 µM
- TGI (NCI-H522 lung): > 100000 nM
- TGI (A498 renal): > 100000 nM
- TGI (786-0 renal): > 100 µM
- TGI (K-562 leukemia): > 100 µM
- TGI (SK-MEL-2 melanoma): > 100000 nM
- TGI (COLO 205 colon): > 100000 nM
- TGI (OVCAR-5 ovarian): > 100 µM
- TGI (U251 CNS): > 100 µM
- TGI (SF-295 CNS): > 100 µM
- TGI (OVCAR-3 ovarian): > 100000 nM
- TGI (HL-60(TB) leukemia): > 100000 nM
